In patent US20110040086A1, “Novel Beta-Lactam Antibiotics, Methods for Their Production, and Their Use” (DRITTE PATENTPORTFOLIO BETEILIGUNGSGESELLSCHAFT MB, priority 2007, published 2011):

Key:
S. epidermidis 125 = assay: agar diffusion test (Test System II, multi-resistant germs); assay type: cell-based, Staphylococcus epidermidis
Outline: (§1)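 Zone diameters around compound-loaded discs serve as the activity measure. Plates of Müller-Hinton agar II receive a three-layer coating of McFarland 0.5 suspension and three discs containing 10, 50 or 100 μg, then stand 18-20 h at 37 °C.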

S. epidermidis 1071 = assay: as above; assay type: cell-based, Staphylococcus epidermidis; set-up: key: r = resistant (no detectable zone of inhibition)
Outline: as §1

S. epidermidis 1068 = assay: as above; assay type: cell-based, Staphylococcus epidermidis; set-up: key: r = resistant (no detectable zone of inhibition)
Outline: as §1

S. epidermidis 847 = assay: as above; assay type: cell-based, Staphylococcus epidermidis; set-up: key: r = resistant (no detectable zone of inhibition)
Outline: as §1

S. epidermidis 563 = assay: as above; assay type: cell-based, Staphylococcus epidermidis; set-up: key: r = resistant (no detectable zone of inhibition)
Outline: as §1

B. subtilis AWD 166 = assay: agar diffusion test (antimicrobial effect); assay type: cell-based, Bacillus subtilis
Outline: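 Nutrient agar seeded with B. subtilis AWD 166 to give dense non-confluent colonies; compounds in methanol or distilled water applied to discs at 10, 50, 100 μg. After 20 h at 37 °C, inhibition zone diameter measured in mm.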

[1] = test system: Enterococcus faecalis 769; assay: agar diffusion test (Test System II, multi-resistant germs); assay type: cell-based; set-up: key: r = resistant (no detectable zone of inhibition)
Outline: as §1

[2] = test system: Staphylococcus aureus 315; assay: as above; assay type: cell-based; set-up: key: r = resistant (no detectable zone of inhibition)
Outline: as §1

E. faecalis 945 = assay: as above; assay type: cell-based, Enterococcus faecalis; set-up: key: r = resistant (no detectable zone of inhibition)
Outline: as §1

S. aureus ATCC 6538 = assay: as above; assay type: cell-based, Staphylococcus aureus
Outline: as §1

S. aureus 38418 = assay: as above; assay type: cell-based, Staphylococcus aureus
Outline: as §1

S. aureus 39105 = assay: as above; assay type: cell-based, Staphylococcus aureus; set-up: key: r = resistant (no detectable zone of inhibition)
Outline: as §1

S. aureus 36881 = assay: as above; assay type: cell-based, Staphylococcus aureus; set-up: key: r = resistant (no detectable zone of inhibition)
Outline: as §1

S. aureus 34289 = assay: as above; assay type: cell-based, Staphylococcus aureus; set-up: key: r = resistant (no detectable zone of inhibition)
Outline: as §1

S. aureus 520 = assay: as above; assay type: cell-based, Staphylococcus aureus; set-up: key: r = resistant (no detectable zone of inhibition)
Outline: as §1

S. aureus 33490 = assay: as above; assay type: cell-based, Staphylococcus aureus; set-up: key: r = resistant (no detectable zone of inhibition)
Outline: as §1

[3] = test system: S. aureus North Germany strain; assay: as above; assay type: cell-based, Staphylococcus aureus; set-up: key: r = resistant (no detectable zone of inhibition)
Outline: as §1

S. aureus 526 = assay: as above; assay type: cell-based, Staphylococcus aureus; set-up: key: r = resistant (no detectable zone of inhibition)
Outline: as §1

[4] = test system: Bacillus megaterium SBUG 1152; assay: agar diffusion test (Test System 1, antimicrobial effect); assay type: cell-based
Outline: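 B. megaterium SBUG 1152 grown overnight (17 h, 37° C., 180 rpm) and seeded at 10^6 cells per 10 ml nutrient agar. Compound at 10, 50 and 100 μg, dissolved in methanol or water, applied to paper discs. Inhibition-zone diameter (mm) read after 20 h at 37° C.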

7-[2-(2-ethoxycarbonyl-3,6-dioxocyclohexa-1,4-dienylamino)-2-(4-hydroxyphenyl)-acetylamino]-desacetoxycephalosporanic acid [1d]
Diameter of zone of inhibition (S. epidermidis 125; Quantity n 0.029): 10 mm
Diameter of zone of inhibition (S. epidermidis 125; Quantity n 0.14): 20 mm
Diameter of zone of inhibition (S. epidermidis 125; Quantity n 0.29): 24 mm
Diameter of zone of inhibition (S. epidermidis 1071; Quantity n 0.029): r
Diameter of zone of inhibition (S. epidermidis 1071; Quantity n 0.14): 14 mm
Diameter of zone of inhibition (S. epidermidis 1071; Quantity n 0.29): 18 mm
Diameter of zone of inhibition (S. epidermidis 1068; Quantity n 0.029): r
Diameter of zone of inhibition (S. epidermidis 1068; Quantity n 0.14): 12 mm
Diameter of zone of inhibition (S. epidermidis 1068; Quantity n 0.29): 14 mm
Diameter of zone of inhibition (S. epidermidis 847; Quantity n [mol] 0.029): r
Diameter of zone of inhibition (S. epidermidis 847; Quantity n [mol] 0.14): 10 mm
Diameter of zone of inhibition (S. epidermidis 847; Quantity n [mol] 0.29): 14 mm
Diameter of zone of inhibition (S. epidermidis 563; Quantity n 0.029): r
Diameter of zone of inhibition (S. epidermidis 563; Quantity n 0.14): 12 mm
Diameter of zone of inhibition (S. epidermidis 563; Quantity n 0.29): 18 mm
Diameter of zone of inhibition (B. subtilis AWD 166; Quantity n 0.029): 22 mm
Diameter of zone of inhibition (B. subtilis AWD 166; Quantity n 0.14): 30 mm
Diameter of zone of inhibition (B. subtilis AWD 166; Quantity n 0.29): 34 mm
Diameter of zone of inhibition ([1]; Quantity n 0.029): r
Diameter of zone of inhibition ([1]; Quantity n 0.14): r
Diameter of zone of inhibition ([1]; Quantity n 0.29): r
Diameter of zone of inhibition ([2]; Quantity n 0.029): r
Diameter of zone of inhibition ([2]; Quantity n 0.14): r
Diameter of zone of inhibition ([2]; Quantity n 0.29): 8 mm
Diameter of zone of inhibition (E. faecalis 945; Quantity n 0.029): r
Diameter of zone of inhibition (E. faecalis 945; Quantity n 0.14): r
Diameter of zone of inhibition (E. faecalis 945; Quantity n 0.29): r
Diameter of zone of inhibition (S. aureus ATCC 6538; Quantity n 0.029): 14 mm
Diameter of zone of inhibition (S. aureus ATCC 6538; Quantity n 0.14): 22 mm
Diameter of zone of inhibition (S. aureus ATCC 6538; Quantity n 0.29): 26 mm
Diameter of zone of inhibition (S. aureus 38418; Quantity n [mol] 0.029): 10 mm
Diameter of zone of inhibition (S. aureus 38418; Quantity n [mol] 0.14): 20 mm
Diameter of zone of inhibition (S. aureus 38418; Quantity n [mol] 0.29): 24 mm
Diameter of zone of inhibition (S. aureus 39105; Quantity n 0.029): r
Diameter of zone of inhibition (S. aureus 39105; Quantity n 0.14): r
Diameter of zone of inhibition (S. aureus 39105; Quantity n 0.29): 14 mm
Diameter of zone of inhibition (S. aureus 36881; Quantity n 0.029): r
Diameter of zone of inhibition (S. aureus 36881; Quantity n 0.14): 14 mm
Diameter of zone of inhibition (S. aureus 36881; Quantity n 0.29): 18 mm
Diameter of zone of inhibition (S. aureus 34289; Quantity n [mol] 0.029): r
Diameter of zone of inhibition (S. aureus 34289; Quantity n [mol] 0.14): r
Diameter of zone of inhibition (S. aureus 34289; Quantity n [mol] 0.29): r
Diameter of zone of inhibition (S. aureus 520; Quantity n [mol] 0.029): r
Diameter of zone of inhibition (S. aureus 520; Quantity n [mol] 0.14): r
Diameter of zone of inhibition (S. aureus 520; Quantity n [mol] 0.29): r
Diameter of zone of inhibition (S. aureus 33490; Quantity n [μmol] 0.029): r
Diameter of zone of inhibition (S. aureus 33490; Quantity n [μmol] 0.14): 14 mm
Diameter of zone of inhibition (S. aureus 33490; Quantity n [μmol] 0.29): 16 mm
Diameter of zone of inhibition ([3]; Quantity n 0.029): r
Diameter of zone of inhibition ([3]; Quantity n 0.14): 10 mm
Diameter of zone of inhibition ([3]; Quantity n 0.29): 12 mm
Diameter of zone of inhibition (S. aureus 526; Quantity n 0.029): r
Diameter of zone of inhibition (S. aureus 526; Quantity n 0.14): r
Diameter of zone of inhibition (S. aureus 526; Quantity n 0.29): r
Diameter of zone of inhibition ([4]; Quantity n 0.029): 18 mm
Diameter of zone of inhibition ([4]; Quantity n 0.14): 30 mm
Diameter of zone of inhibition ([4]; Quantity n 0.29): 34 mm

7-{2-2-(2-hydroxyethylcarbamoyl)-3,6-dioxyocyclohexa-1,4-dienylamino]-2-(4-hydroxyphenyl)-acetylamino}-desacetoxycephalosporanic acid [1a]
Diameter of zone of inhibition (S. epidermidis 125; Quantity n 0.019): 14 mm
Diameter of zone of inhibition (S. epidermidis 125; Quantity n 0.1): 24 mm
Diameter of zone of inhibition (S. epidermidis 125; Quantity n 0.19): 28 mm
Diameter of zone of inhibition (S. epidermidis 1071; Quantity n 0.019): r
Diameter of zone of inhibition (S. epidermidis 1071; Quantity n 0.1): 18 mm
Diameter of zone of inhibition (S. epidermidis 1071; Quantity n 0.19): 20 mm
Diameter of zone of inhibition (S. epidermidis 1068; Quantity n 0.019): r
Diameter of zone of inhibition (S. epidermidis 1068; Quantity n 0.1): 10 mm
Diameter of zone of inhibition (S. epidermidis 1068; Quantity n 0.19): 16 mm
Diameter of zone of inhibition (S. epidermidis 847; Quantity n [mol] 0.019): r
Diameter of zone of inhibition (S. epidermidis 847; Quantity n [mol] 0.1): 16 mm
Diameter of zone of inhibition (S. epidermidis 847; Quantity n [mol] 0.19): 20 mm
Diameter of zone of inhibition (S. epidermidis 563; Quantity n 0.019): r
Diameter of zone of inhibition (S. epidermidis 563; Quantity n 0.1): 10 mm
Diameter of zone of inhibition (S. epidermidis 563; Quantity n 0.19): 16 mm
Diameter of zone of inhibition (B. subtilis AWD 166; Quantity n 0.019): 24 mm
Diameter of zone of inhibition (B. subtilis AWD 166; Quantity n 0.1): 30 mm
Diameter of zone of inhibition (B. subtilis AWD 166; Quantity n 0.19): 32 mm
Diameter of zone of inhibition ([1]; Quantity n 0.019): r
Diameter of zone of inhibition ([1]; Quantity n 0.1): r
Diameter of zone of inhibition ([1]; Quantity n 0.19): r
Diameter of zone of inhibition ([2]; Quantity n 0.019): r
Diameter of zone of inhibition ([2]; Quantity n 0.1): 10 mm
Diameter of zone of inhibition ([2]; Quantity n 0.19): 16 mm
Diameter of zone of inhibition (E. faecalis 945; Quantity n 0.019): r
Diameter of zone of inhibition (E. faecalis 945; Quantity n 0.1): r
Diameter of zone of inhibition (E. faecalis 945; Quantity n 0.19): r
Diameter of zone of inhibition (S. aureus ATCC 6538; Quantity n 0.019): 20 mm
Diameter of zone of inhibition (S. aureus ATCC 6538; Quantity n 0.1): 28 mm
Diameter of zone of inhibition (S. aureus ATCC 6538; Quantity n 0.19): 30 mm
Diameter of zone of inhibition (S. aureus 38418; Quantity n [mol] 0.019): 14 mm
Diameter of zone of inhibition (S. aureus 38418; Quantity n [mol] 0.1): 24 mm
Diameter of zone of inhibition (S. aureus 38418; Quantity n [mol] 0.19): 26 mm
Diameter of zone of inhibition (S. aureus 39105; Quantity n 0.019): r
Diameter of zone of inhibition (S. aureus 39105; Quantity n 0.1): r
Diameter of zone of inhibition (S. aureus 39105; Quantity n 0.19): 14 mm
Diameter of zone of inhibition (S. aureus 36881; Quantity n 0.019): r
Diameter of zone of inhibition (S. aureus 36881; Quantity n 0.1): 10 mm
Diameter of zone of inhibition (S. aureus 36881; Quantity n 0.19): 16 mm
Diameter of zone of inhibition (S. aureus 34289; Quantity n [mol] 0.019): r
Diameter of zone of inhibition (S. aureus 34289; Quantity n [mol] 0.1): r
Diameter of zone of inhibition (S. aureus 34289; Quantity n [mol] 0.19): r
Diameter of zone of inhibition (S. aureus 520; Quantity n [mol] 0.019): r
Diameter of zone of inhibition (S. aureus 520; Quantity n [mol] 0.1): r
Diameter of zone of inhibition (S. aureus 520; Quantity n [mol] 0.19): 12 mm
Diameter of zone of inhibition (S. aureus 33490; Quantity n [μmol] 0.019): r
Diameter of zone of inhibition (S. aureus 33490; Quantity n [μmol] 0.1): 14 mm
Diameter of zone of inhibition (S. aureus 33490; Quantity n [μmol] 0.19): 18 mm
Diameter of zone of inhibition ([3]; Quantity n 0.019): r
Diameter of zone of inhibition ([3]; Quantity n 0.1): 16 mm
Diameter of zone of inhibition ([3]; Quantity n 0.19): 18 mm
Diameter of zone of inhibition (S. aureus 526; Quantity n 0.019): r
Diameter of zone of inhibition (S. aureus 526; Quantity n 0.1): r
Diameter of zone of inhibition (S. aureus 526; Quantity n 0.19): 10 mm
Diameter of zone of inhibition ([4]; Quantity n 0.019): 22 mm
Diameter of zone of inhibition ([4]; Quantity n 0.1): 30 mm
Diameter of zone of inhibition ([4]; Quantity n 0.19): 32 mm
